Source: patent US20240124483A1, “Methods for the Treatment of Fibrotic Disease” (SHY Therapeutics, LLC, priority 2021, published 2024)
Where two headings read alike, the source gives them in different places.

Assays:
[1] = tested on: Smad2/3 phosphorylation; experiment: Phospho-Smad2/3 Inhibition Assay in Panc-1 (western blot); type: cell-based; conditions: Homo sapiens; 10 μM, 3 hours; PANC-1 stimulated with 10 ng/ml TGF-b1 for 1 hour; read-out: % inh of Smad2/3 phosphorylation in PANC-1
How it was run: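 Serum-starved cells (0.5% FBS overnight) pretreated 3 h at 37 °C with compound at 10 μM or serial dilutions for IC50, in 0.3% DMSO. TGF-b1 10 ng/ml stimulation: 1 h for Panc-1 (human), 20 min for C2C12 (mouse). Phospho-Smad2 (Ser465/467) and phospho-Smad3 (Ser423/425) measured by western blot of lysates.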

[2] = target: Rho-A (Homo sapiens (Human), UniProt P61586); experiment: Ras GTP Binding Domain Inhibition Assay, Rho-A; conditions: without SOS, read-out: Rho-A: % inh.
Chain of Rho-A (P61586 whole entry, species assumed, the tested form may be a part): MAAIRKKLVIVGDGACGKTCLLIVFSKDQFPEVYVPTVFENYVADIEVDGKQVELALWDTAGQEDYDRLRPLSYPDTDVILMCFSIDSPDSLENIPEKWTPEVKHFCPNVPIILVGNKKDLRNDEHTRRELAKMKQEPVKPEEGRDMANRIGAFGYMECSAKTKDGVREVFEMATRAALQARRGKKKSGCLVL
How it was run: (§1)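 Steps: coat His-tagged protein (10-30 μg/mL) on nickel wells overnight at 4° C; add test compound, 20 μM final or serial dilution, 1% DMSO, 3 h RT; optional Sos final hour; add 100 nM Cy3-GTP or Cy5-GTP, 45 min; wash and read fluorescence.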

[3] = target: KRas G12D mutant (Homo sapiens (Human), UniProt P01116, G12D); experiment: Ras GTP Binding Domain Inhibition Assay, KRas G12D mutant; conditions: for inhibition at 20 µM: Table 7; for KRas G12D mutant + SOS: % inh. / KRas G12D mutant: % inh.: 20 uM, Table 8
Chain of KRas G12D mutant (P01116 other isoform, or with tags, fused parts or gaps G12D): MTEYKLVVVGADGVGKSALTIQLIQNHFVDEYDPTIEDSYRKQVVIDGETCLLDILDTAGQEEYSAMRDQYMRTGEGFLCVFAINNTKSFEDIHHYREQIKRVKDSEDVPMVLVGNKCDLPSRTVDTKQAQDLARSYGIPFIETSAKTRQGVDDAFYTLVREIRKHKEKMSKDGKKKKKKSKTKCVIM
How it was run: (§2)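 His-tagged KRas proteins coated on nickel plates overnight at 4° C in Tris buffer (pH 7.4 or 7.0, MgCl2, DTT); compounds at 20 μM final (or serial dilutions for IC50) for 3 h at room temperature, ±Sos (residues 556-1049) in final hour. Bound Cy3- or Cy5-GTP (100 nM, 45 min) read by fluorescence after washing.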

[4] = target: Rac-1 (Homo sapiens (Human), UniProt P63000); experiment: Ras GTP Binding Domain Inhibition Assay, Rac-1; conditions: without SOS, read-out: Rac-1: % inh.
How it was run: as §1

[5] = target: KRas G12C mutant (Homo sapiens (Human), UniProt P01116, G12C); experiment: Ras GTP Binding Domain Inhibition Assay, KRas G12C mutant
Chain of KRas G12C mutant (P01116 other isoform, or with tags, fused parts or gaps G12C): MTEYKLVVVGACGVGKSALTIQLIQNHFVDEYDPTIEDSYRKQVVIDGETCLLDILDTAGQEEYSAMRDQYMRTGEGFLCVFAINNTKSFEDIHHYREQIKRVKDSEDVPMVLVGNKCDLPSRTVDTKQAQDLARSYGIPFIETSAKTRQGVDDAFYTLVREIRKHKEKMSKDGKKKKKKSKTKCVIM
How it was run: as §2

[6] = + SOS, read-out: KRas G12D mutant + SOS: % inh.
[7] = without SOS, read-out: KRas G12D mutant: % inh.
[8] = + SOS, read-out: KRas G12C mutant + SOS: % inh.
[9] = without SOS, read-out: KRas G12C mutant: % inh.

inhibition at 20 µM [2] | inhibition at 20 µM [3, 6] | KRas G12D mutant + SOS: % inh. ([3]; + SOS) | inhibition at 20 µM [3, 7] | KRas G12D mutant: % inh. ([3]; without SOS) | inhibition at 20 µM [4] | inhibition at 20 µM [5, 8] | inhibition at 20 µM [5, 9] | Compound | inhibition at 10 µM [1]
76 to 100% | 76 to 100% | D (D = 76-100% inhibition) | 76 to 100% | D (D = 76-100% inhibition) | 76 to 100% | 76 to 100% | 46 to 75% | COCCOCCNc1nc(-c2nccn2C)nc2sc(-c3ccn(C(C)C)n3)c(C)c12 [Compound 21, 6-(1-Isopropyl-1H-pyrazol-3-yl)-N-(2-(2-methoxyethoxy)ethyl)-5-methyl-2-(1-methyl-1H-imidazol-2-yl)thieno[2,3-d]pyrimidin-4-amine] | 0%
76 to 100% | 76 to 100% | D (D = 76-100% inhibition) | 76 to 100% | D (D = 76-100% inhibition) | 76 to 100% | 76 to 100% | 76 to 100% | Cc1c(-c2ccn(C(C)C)n2)sc2nc(-c3nccn3C)nc(NCCN3CCOCC3)c12 [Compound 22, 6-(1-Isopropyl-1H-pyrazol-3-yl)-5-methyl-2-(1-methyl-1H-imidazol-2-yl)-N-(2-morpholinoethyl)thieno[2,3-d]pyrimidin-4-amine] | 0%
46 to 75% | 76 to 100% | D (D = 76-100% inhibition) | 76 to 100% | D (D = 76-100% inhibition) | 46 to 75% | 76 to 100% | 46 to 75% | Cc1c(-c2ccn(C(C)C)n2)sc2nc(-c3nccn3C)nc(NCCN3CCS(=O)(=O)CC3)c12 [Compound 23, 4-(2-((6-(1-Isopropyl-1H-pyrazol-3-yl)-5-methyl-2-(1-methyl-1H-imidazol-2-yl)thieno[2,3-d]pyrimidin-4-yl)amino)ethyl)thiomorpholine 1,1-dioxide] | 0%
0% | 0% | 0 (0 = 0% inhibition) | 0% | 0 (0 = 0% inhibition) | 0% | 0% | 1 to 25% | COCCOc1nc(-c2nccn2C)nc2sc(-c3ccn(C(C)C)n3)c(C)c12 [Compound 30, 6-(1-Isopropyl-1H-pyrazol-3-yl)-4-(2-methoxyethoxy)-5-methyl-2-(1-methyl-1H-imidazol-2-yl)thieno[2,3-d]pyrimidine] | 0%

The next lines start with the molecule.

Compound | inhibition at 20 µM [2] | inhibition at 20 µM [3, 6] | KRas G12D mutant + SOS: % inh. ([3]; + SOS) | inhibition at 20 µM [3, 7] | KRas G12D mutant: % inh. ([3]; without SOS) | inhibition at 20 µM [4] | inhibition at 20 µM [5, 8] | inhibition at 20 µM [5, 9] | inhibition at 10 µM [1]
COc1cccc(Nc2nc(-c3nccn3C)nc3sc(-c4ccn(C(C)C)n4)c(C)c23)n1 [Compound 18, 6-(1-Isopropyl-1H-pyrazol-3-yl)-N-(6-methoxypyridin-2-yl)-5-methyl-2-(1-methyl-1H-imidazol-2-yl)thieno[2,3-d]pyrimidin-4-amine] | 76 to 100% | 46 to 75% | C (C = 46-75% inhibition) | 76 to 100% | D (D = 76-100% inhibition) | 46 to 75% | 46 to 75% | 46 to 75% | 46 to 75%
COc1cc(Nc2nc(-c3nccn3C)nc3sc(-c4ccn(C(C)C)n4)c(C)c23)ncn1 [Compound 19, 6-(1-Isopropyl-1H-pyrazol-3-yl)-N-(6-methoxypyrimidin-4-yl)-5-methyl-2-(1-methyl-1H-imidazol-2-yl)thieno[2,3-d]pyrimidin-4-amine] | 76 to 100% | 46 to 75% | C (C = 46-75% inhibition) | 26 to 45% | B (B = 26-45% inhibition) | 46 to 75% | 76 to 100% | 46 to 75% | 76 to 100%
CO[C@H]1CNC[C@@H](Nc2nc(-c3nccn3C)nc3sc(-c4ccn(C(C)C)n4)cc23)C1 [Compound 28, 6-(1-Isopropyl-1H-pyrazol-3-yl)-N-((3S,5R)-5-methoxypiperidin-3-yl)-2-(1-methyl-1H-imidazol-2-yl)thieno[2,3-d]pyrimidin-4-amine] | 46 to 75% | 76 to 100% | D (D = 76-100% inhibition) | 46 to 75% | C (C = 46-75% inhibition) | 46 to 75% | 76 to 100% | 76 to 100% | 0%
COCCn1c(-c2nccn2C)nc2sc(-c3ccn(C(C)C)n3)c(C)c2c1=O [Compound 29, 6-(1-Isopropyl-1H-pyrazol-3-yl)-3-(2-methoxyethyl)-5-methyl-2-(1-methyl-1H-imidazol-2-yl)thieno[2,3-d]pyrimidin-4(3H)-one] | 76 to 100% | 46 to 75% | C (C = 46-75% inhibition) | 46 to 75% | C (C = 46-75% inhibition) | 0% | 76 to 100% | 46 to 75% | 0%
COCCCn1c(-c2nccn2C)nc2sc(-c3ccn(C(C)C)n3)c(C)c2c1=O [Compound 31, 6-(1-Isopropyl-1H-pyrazol-3-yl)-3-(3-methoxypropyl)-5-methyl-2-(1-methyl-1H-imidazol-2-yl)thieno[2,3-d]pyrimidin-4(3H)-one] | 0% | 0% | 0 (0 = 0% inhibition) | 0% | 0 (0 = 0% inhibition) | 0% | 0% | 0% | 0%
COCCCOc1nc(-c2nccn2C)nc2sc(-c3ccn(C(C)C)n3)c(C)c12 [Compound 32, 6-(1-Isopropyl-1H-pyrazol-3-yl)-4-(3-methoxypropoxy)-5-methyl-2-(1-methyl-1H-imidazol-2-yl)thieno[2,3-d]pyrimidine] | 76 to 100% | 46 to 75% | C (C = 46-75% inhibition) | 46 to 75% | C (C = 46-75% inhibition) | 0% | 46 to 75% | 46 to 75% | 0%
COCCCCn1c(-c2nccn2C)nc2sc(-c3ccn(C(C)C)n3)c(C)c2c1=O [Compound 33, 6-(1-Isopropyl-1H-pyrazol-3-yl)-3-(4-methoxybutyl)-5-methyl-2-(1-methyl-1H-imidazol-2-yl)thieno[2,3-d]pyrimidin-4(3H)-one] | 0% | 0% | 0 (0 = 0% inhibition) | 0% | 0 (0 = 0% inhibition) | 0% | 1 to 25% | 0% | 0%
COCCCCOc1nc(-c2nccn2C)nc2sc(-c3ccn(C(C)C)n3)c(C)c12 [Compound 34, 6-(1-Isopropyl-1H-pyrazol-3-yl)-4-(4-methoxybutoxy)-5-methyl-2-(1-methyl-1H-imidazol-2-yl)thieno[2,3-d]pyrimidine] | 0% | 0% | 0 (0 = 0% inhibition) | 1 to 25% | A (A = 1-25% inhibition) | 0% | 1 to 25% | 0% | 0%
